# Experimental data taken from PubChem BioAssay AID1259407 (Chemical Carcinogenesis Research Information System (CCRIS), 2018).
# Calls of active or inactive are those of the source. The rule behind the calls is not given here.
# Tested on: CCRIS mutagenicity, Ames/micronucleus/aberration tests
# Assay: CCRIS mutagenicity studies
# [1] = Test System: AMES SALMONELLA TYPHIMURIUM, Strain/Indicator: TA100, Metabolic Activation: NONE, Method: STANDARD PLATE
smiles,measurement,setting,value
O=C(O)c1ccccc1C(=O)O,mutagenic call,"End Point: In vitro chromosomal aberrations, Test System: Chinese hamster ovary (CHO) cells, Metabolic Activation: None",inactive; negative
same,mutagenic call,"End Point: In vitro chromosomal aberrations, Test System: Chinese hamster ovary (CHO) cells, Metabolic Activation: Rat, liver, S-9, Aroclor 1254, 10%",inactive; negative
same,mutagenic call,"End Point: In vivo micronucleus, Test System: Bone marrow polychromatic erythrocytes, Species: Mouse, Strain/Sex: ICR/Male, Route: Intraperitoneal",inactive; negative
same,mutagenic call,"Test System: AMES SALMONELLA TYPHIMURIUM, Strain/Indicator: TA97, Metabolic Activation: HAMSTER, LIVER, S-9, AROCLOR 1254, 10%, Method: PREINCUBATION",inactive; negative
same,mutagenic call,"Test System: AMES SALMONELLA TYPHIMURIUM, Strain/Indicator: TA97, Metabolic Activation: HAMSTER, LIVER, S-9, AROCLOR 1254, 30%, Method: PREINCUBATION",inactive; negative
same,mutagenic call,"Test System: AMES SALMONELLA TYPHIMURIUM, Strain/Indicator: TA97, Metabolic Activation: NONE, Method: PREINCUBATION",inactive; negative
same,mutagenic call,"Test System: AMES SALMONELLA TYPHIMURIUM, Strain/Indicator: TA97, Metabolic Activation: RAT, LIVER, S-9, AROCLOR 1254, 10%, Method: PREINCUBATION",inactive; negative
same,mutagenic call,"Test System: AMES SALMONELLA TYPHIMURIUM, Strain/Indicator: TA97, Metabolic Activation: RAT, LIVER, S-9, AROCLOR 1254, 30%, Method: PREINCUBATION",inactive; negative
same,mutagenic call,"Test System: AMES SALMONELLA TYPHIMURIUM, Strain/Indicator: TA97, Metabolic Activation: RAT, LIVER, S-9, PHENOBARBITAL AND 5,6-BENZOFLAVONE, Method: PREINCUBATION",inactive; negative
same,mutagenic call,"Test System: AMES SALMONELLA TYPHIMURIUM, Strain/Indicator: TA98, Metabolic Activation: HAMSTER, LIVER, S-9, AROCLOR 1254, 10%, Method: PREINCUBATION",inactive; negative
same,mutagenic call,"Test System: AMES SALMONELLA TYPHIMURIUM, Strain/Indicator: TA98, Metabolic Activation: HAMSTER, LIVER, S-9, AROCLOR 1254,(30%, Method: PREINCUBATION",inactive; negative
same,mutagenic call,"Test System: AMES SALMONELLA TYPHIMURIUM, Strain/Indicator: TA98, Metabolic Activation: NONE, Method: PREINCUBATION",inactive; negative
same,mutagenic call,"Test System: AMES SALMONELLA TYPHIMURIUM, Strain/Indicator: TA98, Metabolic Activation: RAT, LIVER, S-9, AROCLOR 1254, 10%, Method: PREINCUBATION",inactive; negative
same,mutagenic call,"Test System: AMES SALMONELLA TYPHIMURIUM, Strain/Indicator: TA98, Metabolic Activation: RAT, LIVER, S-9, AROCLOR 1254, 30%, Method: PREINCUBATION",inactive; negative
same,mutagenic call,"Test System: AMES SALMONELLA TYPHIMURIUM, Strain/Indicator: TA98, Metabolic Activation: RAT, LIVER, S-9, PHENOBARBITAL AND 5,6-BENZOFLAVONE, Method: PREINCUBATION",inactive; negative
same,mutagenic call,"Test System: AMES SALMONELLA TYPHIMURIUM, Strain/Indicator: TA100, Metabolic Activation: HAMSTER, LIVER, S-9, AROCLOR 1254, 10%, Method: PREINCUBATION",inactive; negative
same,mutagenic call,"Test System: AMES SALMONELLA TYPHIMURIUM, Strain/Indicator: TA100, Metabolic Activation: HAMSTER, LIVER, S-9, AROCLOR 1254, 30%, Method: PREINCUBATION",inactive; negative
same,mutagenic call,"Test System: AMES SALMONELLA TYPHIMURIUM, Strain/Indicator: TA100, Metabolic Activation: NONE, Method: PREINCUBATION",inactive; negative
same,mutagenic call,"Test System: AMES SALMONELLA TYPHIMURIUM, Strain/Indicator: TA100, Metabolic Activation: RAT, LIVER, S-9, AROCLOR 1254, 10%, Method: PREINCUBATION",inactive; negative
same,mutagenic call,"Test System: AMES SALMONELLA TYPHIMURIUM, Strain/Indicator: TA100, Metabolic Activation: RAT, LIVER, S-9, AROCLOR 1254, 30%, Method: PREINCUBATION",inactive; negative
same,mutagenic call,"Test System: AMES SALMONELLA TYPHIMURIUM, Strain/Indicator: TA100, Metabolic Activation: RAT, LIVER, S-9, PHENOBARBITAL AND 5,6-BENZOFLAVONE, Method: PREINCUBATION",inactive; negative
same,mutagenic call,"Test System: AMES SALMONELLA TYPHIMURIUM, Strain/Indicator: TA102, Metabolic Activation: NONE, Method: PREINCUBATION",inactive; negative
same,mutagenic call,"Test System: AMES SALMONELLA TYPHIMURIUM, Strain/Indicator: TA102, Metabolic Activation: RAT, LIVER, S-9, PHENOBARBITAL AND 5,6-BENZOFLAVONE, Method: PREINCUBATION",inactive; negative
same,mutagenic call,"Test System: AMES SALMONELLA TYPHIMURIUM, Strain/Indicator: TA104, Metabolic Activation: NONE, Method: PREINCUBATION",inactive; negative
same,mutagenic call,"Test System: AMES SALMONELLA TYPHIMURIUM, Strain/Indicator: TA104, Metabolic Activation: RAT, LIVER, S-9, PHENOBARBITAL AND 5,6-BENZOFLAVONE, Method: PREINCUBATION",inactive; negative
same,mutagenic call,"Test System: AMES SALMONELLA TYPHIMURIUM, Strain/Indicator: TA1535, Metabolic Activation: HAMSTER, LIVER, S-9, AROCLOR 1254, 10%, Method: PREINCUBATION",inactive; negative
same,mutagenic call,"Test System: AMES SALMONELLA TYPHIMURIUM, Strain/Indicator: TA1535, Metabolic Activation: HAMSTER, LIVER, S-9, AROCLOR 1254, 30%, Method: PREINCUBATION",inactive; negative
same,mutagenic call,"Test System: AMES SALMONELLA TYPHIMURIUM, Strain/Indicator: TA1535, Metabolic Activation: NONE, Method: PREINCUBATION",inactive; negative
same,mutagenic call,"Test System: AMES SALMONELLA TYPHIMURIUM, Strain/Indicator: TA1535, Metabolic Activation: RAT, LIVER, S-9, AROCLOR 1254 (10%), Method: PREINCUBATION",inactive; negative
same,mutagenic call,"Test System: AMES SALMONELLA TYPHIMURIUM, Strain/Indicator: TA1535, Metabolic Activation: RAT, LIVER, S-9, AROCLOR 1254, 30%, Method: PREINCUBATION",inactive; negative
same,mutagenic call,"Test System: Ames Salmonella typhimurium, Strain/Indicator: TA98, Metabolic Activation: None, Method: Preincubation",inactive; negative
same,mutagenic call,"Test System: Ames Salmonella typhimurium, Strain/Indicator: TA98, Metabolic Activation: Rat, Liver, S-9, Aroclor 1254, Method: Preincubation",inactive; negative
same,mutagenic call,"Test System: Ames Salmonella typhimurium, Strain/Indicator: TA100, Metabolic Activation: None, Method: Preincubation",inactive; negative
same,mutagenic call,"Test System: Ames Salmonella typhimurium, Strain/Indicator: TA100, Metabolic Activation: Rat, liver, S-9, Aroclor 1254, Method: Preincubation",inactive; negative
same,mutagenic call,"Test System: Ames Salmonella typhimurium, Strain/Indicator: TA102, Metabolic Activation: None, Method: Preincubation",inactive; negative
same,mutagenic call,"Test System: Ames Salmonella typhimurium, Strain/Indicator: TA102, Metabolic Activation: Rat, liver, S-9, Aroclor 1254, Method: Preincubation",inactive; negative
same,mutagenic call,"Test System: Ames Salmonella typhimurium, Strain/Indicator: TA1535, Metabolic Activation: None, Method: Preincubation",inactive; negative
same,mutagenic call,"Test System: Ames Salmonella typhimurium, Strain/Indicator: TA1535, Metabolic Activation: Rat, liver, S-9, Aroclor 1254, Method: Preincubation",inactive; negative
same,mutagenic call,"Test System: Ames Salmonella typhimurium, Strain/Indicator: TA1537, Metabolic Activation: None, Method: Preincubation",inactive; negative
same,mutagenic call,"Test System: Ames Salmonella typhimurium, Strain/Indicator: TA1537, Metabolic Activation: Rat, liver, S-9, Aroclor 1254, Method: Preincubation",inactive; negative
ClCc1ccc2c(c1)-c1cccc3cccc-2c13,mutagenic call,"Test System: AMES SALMONELLA TYPHIMURIUM, Strain/Indicator: TA98, Metabolic Activation: NONE, Method: STANDARD PLATE",active; positive
same,mutagenic call,[1],active; positive
C=C(C#N)C(=O)OCC(C)C,mutagenic call,[1],inactive; negative
same,mutagenic call,"Test System: AMES SALMONELLA TYPHIMURIUM, Strain/Indicator: TA100, Metabolic Activation: RAT, LIVER, S-9, AROCLOR 1254, Method: STANDARD PLATE",inactive; negative
